The results in this text go back to patent US11213525B2, “Linear glycosidase inhibitors” (Asceneuron SA, priority 2017, dated 2022).

The target of the assay is His-Tagged hOGA (human O-GlcNAcase) (Homo sapiens (Human), UniProt O60502). Briefly: Human O-GlcNAcase enzyme inhibition assay. The format is biochemical. The following applies: 20 nM His-Tagged hOGA, 10 μM FL-GlcNAc, 60 min at room temperature, pH 6.5; activity classes defined in μM; read-out: Enzymatic OGA IC50. As to the method:
Then, 20 nM of His-Tagged hOGA and 10 μM of FL-GlcNAc (Fluorescein mono-beta-D-(2-deoxy-2-N-acetyl) glucopyranoside; Marker Gene Technologies Inc, M1485) were added to the 384-well plate for a final volume of 20 μl.

Chain of His-Tagged hOGA (human O-GlcNAcase) (O60502 whole entry): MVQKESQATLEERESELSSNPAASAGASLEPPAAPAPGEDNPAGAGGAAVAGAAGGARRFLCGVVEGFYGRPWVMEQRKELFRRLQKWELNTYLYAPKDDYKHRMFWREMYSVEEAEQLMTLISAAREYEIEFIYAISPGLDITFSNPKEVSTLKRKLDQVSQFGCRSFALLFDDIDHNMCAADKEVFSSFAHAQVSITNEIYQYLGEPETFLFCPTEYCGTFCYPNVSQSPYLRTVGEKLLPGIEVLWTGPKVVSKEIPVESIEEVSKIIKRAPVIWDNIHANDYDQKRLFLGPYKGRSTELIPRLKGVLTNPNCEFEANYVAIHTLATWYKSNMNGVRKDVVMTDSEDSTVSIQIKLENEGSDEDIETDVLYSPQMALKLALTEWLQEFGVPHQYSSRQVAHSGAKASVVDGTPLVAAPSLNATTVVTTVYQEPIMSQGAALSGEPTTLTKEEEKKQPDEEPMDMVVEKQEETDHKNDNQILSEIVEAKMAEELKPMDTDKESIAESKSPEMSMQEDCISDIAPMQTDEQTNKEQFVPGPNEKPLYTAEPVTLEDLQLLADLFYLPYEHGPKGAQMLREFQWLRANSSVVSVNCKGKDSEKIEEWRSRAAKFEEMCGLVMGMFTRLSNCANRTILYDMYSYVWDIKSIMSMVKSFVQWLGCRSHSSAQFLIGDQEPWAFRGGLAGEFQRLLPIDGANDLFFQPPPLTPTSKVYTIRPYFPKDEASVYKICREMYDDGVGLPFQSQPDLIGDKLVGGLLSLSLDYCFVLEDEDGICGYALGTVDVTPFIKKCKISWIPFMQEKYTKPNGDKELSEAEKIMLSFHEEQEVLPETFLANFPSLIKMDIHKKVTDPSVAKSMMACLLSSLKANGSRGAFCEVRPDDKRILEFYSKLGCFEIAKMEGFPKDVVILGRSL

For the molecule `CC(c1ccc2c(c1)OCC2)N1CCN(C(=O)NC2CCOC2)CC1` (racemic) [Example 18, 4-(1-(2,3-dihydrobenzofuran-6-yl)ethyl)-N-(tetrahydrofuran-3-yl)piperazine-1-carboxamide], the IC50 was 0.05 to 0.2 µM.
Under `CC(c1ccc2c(c1)OCO2)N1CCN(C(=O)Nc2ccccc2)CC1` (racemic) [Example 19, 4-(1-(benzo[d][1,3]dioxol-5-yl)ethyl)-N-phenylpiperazine-1-carboxamide] stands 0.2 to 1 µM; under `CC(c1ccc2c(c1)OCO2)N1CCN(C(=O)Nc2ccc(Cl)cc2)CC1` (racemic) [Example 20, 4-(1-(benzo[d][1, 3]dioxol-5-yl)ethyl)-N-(4-chlorophenyl)piperazine-1-carboxamide], 0.2 to 1 µM; under `CC(c1ccc2c(c1)OCC2)N1CCC(C(=O)NCc2ccc(C#N)cc2)CC1` (racemic) [Example 21, N-(4-cyanobenzyl)-1-(1-(2,3-dihydrobenzofuran-6-yl)ethyl)piperidine-4-carboxamide], 0.2 to 1 µM.
Turning to `CC(c1ccc2c(c1)OCC2)N1CCC(C(=O)NCc2ccc(S(C)(=O)=O)cc2)CC1` (racemic) [Example 22, 1-(1-(2,3-dihydrobenzofuran-6-yl)ethyl)-N-(4-(methylsulfonyl)benzyl)piperidine-4-carboxamide], the concentration for half-maximal inhibition (IC50) lay in the range of 0.2 to 1 µM.
Under `CC(c1ccc2c(c1)OCC2)N1CCC(C(=O)NCc2ccc(C(F)(F)F)cc2)CC1` (racemic) [Example 23, 1-(1-(2,3-dihydrobenzofuran-6-yl)ethyl)-N-(4-(trifluoromethyl)benzyl)piperidine-4-carboxamide] stands 0.2 to 1 µM; under `CC(c1ccc2c(c1)OCC2)N1CCC(Nc2cccnc2)CC1` (racemic) [Example 24, N-(1-(1-(2,3-dihydrobenzofuran-6-yl)ethyl)piperidin-4-yl)pyridin-3-amine], 0.05 to 0.2 µM.
Under `CC(c1ccc2c(c1)OCC2)N1CCC(NC(=O)Cc2ccc(S(C)(=O)=O)cc2)CC1` (racemic) [Example 25, N-(1-(1-(2,3-dihydrobenzofuran-6-yl)ethyl)piperidin-4-yl)-2-(4-(methylsulfonyl)phenyl)acetamide] stands < 0.05 µM; under `CC(c1ccc2c(c1)OCC2)N1CCC(NC(=O)Cc2ccc(C#N)cc2)CC1` (racemic) [Example 26, 2-(4-cyanophenyl)-N-(1-(1-(2,3-dihydrobenzofuran-6-yl)ethyl)piperidin-4-yl)acetamide], 0.05 to 0.2 µM; under `CC(c1ccc2c(c1)OCC2)N1CCC(NC(=O)Cc2ccc(C(F)(F)F)cc2)CC1` (racemic) [Example 27, N-(1-(1-(2,3-dihydrobenzofuran-6-yl)ethyl)piperidin-4-yl)-2-(4-(trifluoromethyl)phenyl)acetamide], 0.05 to 0.2 µM.
To `COc1cc(OC2CCN(C(C)c3ccc4c(c3)OCC4)CC2)ccn1` (racemic) [Example 29, 4-((1-(1-(2,3-dihydrobenzofuran-6-yl)ethyl)piperidin-4-yl)oxy)-2-methoxypyridine] belongs < 0.05 µM.
On to `CC(c1ccc2c(c1)OCC2)N1CCC(Oc2ccc(S(C)(=O)=O)cn2)CC1` (racemic) [Example 30, 2-((1-(1-(2,3-dihydrobenzofuran-6-yl)ethyl)piperidin-4-yl)oxy)-5-(methylsulfonyl)pyridine], for which the IC50 was < 0.05 µM.
To `CC(c1ccc2c(c1)OCC2)N1CCC(Oc2cccnc2)CC1` (racemic) [Example 32, 3-((1-(1-(2,3-dihydrobenzofuran-6-yl)ethyl)piperidin-4-yl)oxy)pyridine] belongs < 0.05 µM.
Under `CC(c1ccc2c(c1)OCC2)N1CCC(Oc2ccc(C#N)cn2)CC1` (racemic) [Example 33, 6-((1-(1-(2,3-dihydrobenzofuran-6-yl)ethyl)piperidin-4-yl)oxy)nicotinonitrile] stands < 0.05 µM.
Consider `CC(c1ccc2c(c1)OCC2)N1CCC(Oc2cncnc2)CC1` (racemic) [Example 34, 5-((1-(1-(2,3-dihydrobenzofuran-6-yl)ethyl)piperidin-4-yl)oxy)pyrimidine], for which the IC50 was in the range of 0.05 to 0.2 µM.
To `CC(c1ccc2c(c1)OCC2)N1CCC(OCc2cccnc2)CC1` (racemic) [Example 35, 3-(((1-(1-(2,3-dihydrobenzofuran-6-yl)ethyl)piperidin-4-yl)oxy)methyl)pyridine] belongs 0.05 to 0.2 µM; to `CC(c1ccc2c(c1)OCC2)N1CCC(Oc2ncc(S(C)(=O)=O)cn2)CC1` (racemic) [Example 36, 2-((1-(1-(2,3-dihydrobenzofuran-6-yl)ethyl)piperidin-4-yl)oxy)-5-(methylsulfonyl)pyrimidine], 0.05 to 0.2 µM; to `CC(c1ccc2c(c1)OCC2)N1CCC(Oc2ncccn2)CC1` (racemic) [Example 37, 2-((1-(1-(2,3-dihydrobenzofuran-6-yl)ethyl)piperidin-4-yl)oxy)pyrimidine], 0.2 to 1 µM.
For `CC(c1ccc2c(c1)OCC2)N1CCC(Oc2cccnn2)CC1` (racemic) [Example 38, 3-((1-(1-(2,3-dihydrobenzofuran-6-yl)ethyl)piperidin-4-yl)oxy)pyridazine], the 50% inhibitory concentration (IC50) lay in the range of 0.2 to 1 µM.
For `CC(c1ccc2c(c1)OCC2)N1CCC(Oc2cccnc2)CC1` (single isomer, unassigned) [Example 28], the IC50 was < 0.05 µM.
Under `CC(c1ccc2scnc2c1)N1CCC(Oc2cccnc2)CC1` (single isomer, unassigned) [Example 31, (S)-5-(1-(4-(pyridin-3-yloxy)piperidin-1-yl)ethyl)benzo[d]thiazole or (R)-5-(1-(4-(pyridin-3-yloxy)piperidin-1-yl)ethyl)benzo[d]thiazole] stands < 0.05 µM.
`CC(c1ccc2c(c1)OCC2)N1CCC(Oc2cccnc2)CC1` (single isomer, unassigned) [Example 39]: the IC50 lay in the range of 1 to 10 µM.

What is called IC50 is the concentration that gives 50% inhibition.
